According to patent US11992491B2, “Crystalline salts of 5-methyl-(6S)-tetrahydrofolic acid and L-valine ethyl ester” (Merck Patent GmbH, priority 2018, dated 2024):

Columns and labels:
[1] = cited from earlier work; for aqueous solubility: at room temperature, known values for calcium salt polymorphs
[2] = for kinetic solubility: 42.5 mg in 2.00 mL purified/de-ionized water, agitated at room temperature for one minute, filtered, gravimetric evaluation of residue
Experimental: (§1) 42.5 mg of the anhydrous form of the crystalline 5-methyl-(6S)-tetrahydrofolic acid L-valine ethyl ester salt (Form A) according to Example 2 was weighed into a 7 mL glass vial with a screw cap. 2.00 mL of purified/de-ionized water (for instance water for chromatography) was added to the solid using an adjustable volumetric pipette. The mixture was vigorously agitated at room temperature for one minute. […] The dilute suspension was filtered by centrifugal filtration and 1.50 mL of the aqueous solution was transferred into a tared glass vial (about 10 mL volume). The water was evaporated in an air dryer at 40° C. for about 15 hours, then at 50° C. for about eight hours, subsequently drying was completed at 50° C. under vacuum (10 to 20 mbar) for about 13 hours. The solubility was determined by gravimetric evaluation of the solid residue.
as §1, with “calcium” for “L-valine ethyl ester”, “salt” for “salt (Form A) according to Example 2”, “The” for “The dilute”

[3] = relative humidity range from 0 to 55%; RH scans 5% per hour
From the text: DVS measurements are typically performed with an SPS11-100n “Sorptions Prüfsystem” from ProUmid (formerly “Projekt Messtechnik”), August-Nagel-Str. 23, 89079 Ulm (Germany).
23, 89079 Ulm (Germany). For relative humidity (RH) scans, change rates of 5% per hour were used.

Molecule	aqueous solubility [1]	kinetic solubility [2]	change of relative sample mass (DVS) [3]	also measured
CN1c2c([nH]c(N)nc2=O)NC[C@@H]1CNc1ccc(C(=O)N[C@@H](CCC(=O)[O-])C(=O)[O-])cc1.[Ca+2] [metastable Form I, calcium salt of 5-methyl-(6S)-tetrahydrofolic acid]	about 10 mg/ml	–	–	–
5-methyl-(6S)-tetrahydrofolic acid calcium salt	–	9.0 mg of 5-methyl-(6S)-tetrahydrofolic acid per mL	about 6%	–
5-methyl-(6S)-tetrahydrofolic acid L-valine ethyl ester salt	–	12.5 mg of 5-methyl-(6S)-tetrahydrofolic acid per mL	less than 1%	improvement of kinetic solubility versus the known metastable Form 1 of the calcium salt ([2]; versus calcium salt Form 1): about 50%
CN1c2c(nc(N)[nH]c2=O)NC[C@@H]1CNc1ccc(C(=O)N[C@@H](CCC(=O)O)C(=O)O)cc1 [5-methyl-(6S)-tetrahydrofolic acid]	–	–	–	solubility in water (in words) ([1]; water): poorly soluble
CN1c2c([nH]c(N)nc2=O)NC[C@@H]1CNc1ccc(C(=O)N[C@@H](CCC(=O)[O-])C(=O)[O-])cc1.[Ca+2] [calcium salt (Form Ill), calcium salt of 5-methyl-(6S)-tetrahydrofolic acid]	about 2.5 mg/ml	–	–	–
